# What was measured:
# CDK2/Cyclin E = molecular target: T1, CDK2/Cyclin E (Homo sapiens, UniProt P24941); assay: CDK2/Cyclin E kinase inhibition (33P-ATP, histone H1); assay type: biochemical; settings: 15 μM ATP
# T1 construct: made in house; host or cells: Sf9 insect cells (baculovirus)
# Procedure: CDK2/Cyclin E kinase was produced in Sf9 insect cells via baculoviral infection and purified on a NiNTA column (Qiagen). The kinase reactions were assayed with 1 mg/mL histone H1 in the presence of 15 μM ATP, 0.05 μCi [γ-^33P]ATP and of the test compound in a final volume of 10 μL, all in a reaction buffer (60 mM HEPES-NaOH, pH 7.5, 3 mM MgCl2, 3 mM MnCl2, 3 μM Na-orthovanadate, 1.2 mM DTT, 2.5 μg/50 μl PEG20.000). CDK5/p35 was purchased from ProQinase GmbH. The kinase reactions were assayed with 1 mg/mL histone H1 in the presence of 0.15 μM ATP, 0.05 μCi [γ-^33P]ATP and of the test compound in a final volume of 10 μL, all in a reaction buffer (60 mM HEPES-NaOH, pH 7.5, 3 mM MgCl2, 3 mM MnCl2, 3 μM Na-orthovanadate, 1.2 mM DTT, 2.5 μg/50 μl PEG20.000).
# (§1) The reactions were stopped by adding 5 μL of 3% aq H3PO4. Aliquots were spotted onto P-81 phosphocellulose (Whatman), washed 3× with 0.5% aq H3PO4 and finally air-dried.
# [1] = test system: breast carcinoma cell line MCF7; assay: Cell cycle profile by BrdU/propidium iodide flow cytometry; assay type: cell-based; settings: asynchronously growing MCF7, 24 h, FIG. 1
# Procedure: Sub-confluent cells were treated with test compounds at different concentrations for 24 h. The cultures were pulse-labeled with […] 5-bromo-20-deoxyuridine (BrdU) for 30 min at 37° C. prior to harvesting. The cells were then washed in PBS, fixed with 70% ethanol, and denatured in 2 M HCl. Following neutralization, the cells were stained with anti-BrdU fluorescein-labeled antibodies, washed, stained with propidium iodide and analyzed by flow cytometry using a 488 nm laser
# [2] = test system: HL60 (human promyelocytic leukaemia); assay: MTT cytotoxicity assay, leukemic cell line HL60; assay type: cell-based; settings: Homo sapiens, HL-60, 72 h, three days
# Text: (§2) Cytotoxicity of the compounds is the major property determining their antileukemic efficacy in vivo. One of the parameters used, as the basis for cytotoxicity assays, is the metabolic activity of viable cells. For example, a microtiter assay, which uses (3-(4,5-dimethylthiazol-2-yl)-2,5-diphenyltetrazolium bromide (MTT), is widely used to quantitate cell proliferation and cytotoxicity. This assay is widely used in drug screening programs and in chemosensitivity testing. Because only metabolically active living cells reduce MTT to correspond purple formazan dye, these assays detect viable cells exclusively. The quantity of reduced MTT corresponds to the number of vital cells in the culture.
# (§3) The compounds were assayed using the following leukemic cell lines: K562 (human chronic myelogenous leukaemia), HL60 (human promyelocytic leukaemia), CEM (human lymphoblastoid leukaemia), THP1 (human monocytic cell line), MV4; 11 (acute myelocytic leukemia). All cell lines were grown in RPMI medium supplemented with fetal bovine serum and L-glutamine and maintained at 37° C. in a humidified atmosphere with 5% CO2. For cytotoxicity assays, 2000-5000 cells were seeded into each well of 96 well plate, allowed to stabilize for at least 8 h and then tested compounds were added at various concentrations ranging from 100 to 0.01 μM in triplicates. After three days, MTT solution (5 mg/ml; Sigma, St. Louis, USA) was added to cells and medium was replaced with DMSO after five hours. The absorbance was measured at 620 nm by employing a microplate reader. MTT assays were repeated 3 times for each drug application and untreated cells were used as reference.
# [3] = test system: MV4;11 (acute myelocytic leukemia); assay: MTT cytotoxicity assay, leukemic cell line MV4;11; assay type: cell-based; settings: Homo sapiens, MV4-11, 72 h, three days
# Text: as §2, §3
# [4] = test system: THP1 (human monocytic cell line); assay: MTT cytotoxicity assay, leukemic cell line THP1; assay type: cell-based; settings: Homo sapiens, THP-1, 72 h, three days
# Text: as §2, §3
# [5] = test system: G361 (malignant melanoma); assay: MTT cytotoxicity assay, solid cancer cell line G361; assay type: cell-based; settings: Homo sapiens, G-361, 72 h, three days
# Procedure: as §3, with “following” for “following leukemic”, “G361 (malignant melanoma), MCF7 (breast adenocarcinoma), PLC/PRF/5 (liver hepatoma), PANC-1 (pancreatic carcinoma) and HCT116 (colon carcinoma).” for “K562 (human chronic myelogenous leukaemia), HL60 (human promyelocytic leukaemia), CEM (human lymphoblastoid leukaemia), THP1 (human monocytic cell line), MV4; 11 (acute myelocytic leukemia).”, “DMEM” for “RPMI”, “4000-10000” for “2000-5000”, “of a” for “of”, “16” for “8”
# [6] = test system: PANC-1 (pancreatic carcinoma); assay: MTT cytotoxicity assay, solid cancer cell line PANC-1; assay type: cell-based; settings: Homo sapiens, PANC-1, 72 h, three days
# Procedure: as §3, with “following” for “following leukemic”, “G361 (malignant melanoma), MCF7 (breast adenocarcinoma), PLC/PRF/5 (liver hepatoma), PANC-1 (pancreatic carcinoma) and HCT116 (colon carcinoma).” for “K562 (human chronic myelogenous leukaemia), HL60 (human promyelocytic leukaemia), CEM (human lymphoblastoid leukaemia), THP1 (human monocytic cell line), MV4; 11 (acute myelocytic leukemia).”, “DMEM” for “RPMI”, “4000-10000” for “2000-5000”, “of a” for “of”, “16” for “8”
# [7] = test system: PLC/PRF/5 (liver hepatoma); assay: MTT cytotoxicity assay, solid cancer cell line PLC/PRF/5; assay type: cell-based; settings: Homo sapiens, PLC-PRF-5, 72 h, three days
# Procedure: as §3, with “following” for “following leukemic”, “G361 (malignant melanoma), MCF7 (breast adenocarcinoma), PLC/PRF/5 (liver hepatoma), PANC-1 (pancreatic carcinoma) and HCT116 (colon carcinoma).” for “K562 (human chronic myelogenous leukaemia), HL60 (human promyelocytic leukaemia), CEM (human lymphoblastoid leukaemia), THP1 (human monocytic cell line), MV4; 11 (acute myelocytic leukemia).”, “DMEM” for “RPMI”, “4000-10000” for “2000-5000”, “of a” for “of”, “16” for “8”
# [8] = test system: CEM (human lymphoblastoid leukaemia); assay: MTT cytotoxicity assay, leukemic cell line CEM; assay type: cell-based; settings: Homo sapiens, 72 h, three days
# Text: as §2, §3
# [9] = test system: MCF7 (breast adenocarcinoma); assay: MTT cytotoxicity assay, solid cancer cell line MCF7; assay type: cell-based; settings: Homo sapiens, MCF7, 72 h, three days
# Procedure: as §3, with “following” for “following leukemic”, “G361 (malignant melanoma), MCF7 (breast adenocarcinoma), PLC/PRF/5 (liver hepatoma), PANC-1 (pancreatic carcinoma) and HCT116 (colon carcinoma).” for “K562 (human chronic myelogenous leukaemia), HL60 (human promyelocytic leukaemia), CEM (human lymphoblastoid leukaemia), THP1 (human monocytic cell line), MV4; 11 (acute myelocytic leukemia).”, “DMEM” for “RPMI”, “4000-10000” for “2000-5000”, “of a” for “of”, “16” for “8”
# [10] = test system: HUVECs (human umbilical vein endothelial cells); assay: HUVEC proliferation assay (crystal violet); assay type: cell-based; settings: Homo sapiens, HUVEC, 72 h, read-out: Inhibition of proliferation (EC50)
# Procedure: (§4) To verify that novel compounds have anti-vascularisation properties, we analyzed their influence on the proliferation and migration of HUVECs. HUVECs (human umbilical vein endothelial cells) were purchased from Promocell (Heidelberg, Germany) and cultured in endothelial cell growth medium (ECGM, Promocell, Heidelberg, Germany) containing 10% FCS (Biochrom, Berlin, Germany). Experiments were performed using cells at passage 3.
# For proliferation assay, 1.5×10^3 HUVECs were cultured for 24 h. Afterwards, cells were either left untreated or treated with novel compounds for 72 h. Proliferation assay was performed using crystal violet as described previously (Koltermann et al. 2007, Cell Mol. Life Sci. 64:1715-1722).
# [11] = test system: HUVECs (human umbilical vein endothelial cells); assay: HUVEC migration (scratch) assay; assay type: cell-based; settings: 16 h, read-out: Inhibition of migration (EC50)
# Procedure: as §4
# For migration assay, confluent HUVECs were scratched with a pipette tip and immediately treated with either starvation medium M199 (serum-free, negative control; PAN Biotech) or full endothelial cell growth medium (positive control). After 16 h, cells were fixed with 3% formaldehyde and images were taken using the TILLvisON system (Lochham, Germany) connected to an Axiovert 200 microscope (Zeiss, Germany). Evaluation of pictures was made by S.CO LifeScience (Garching, Germany). Migration was quantified as the ratio of the area covered with cells and the area of the cell free wound.
# HCT116 (colon carcinoma) = assay: MTT cytotoxicity assay, solid cancer cell line HCT116; assay type: cell-based; settings: Homo sapiens, HCT-116, 72 h, three days
# Procedure: as §3, with “following” for “following leukemic”, “G361 (malignant melanoma), MCF7 (breast adenocarcinoma), PLC/PRF/5 (liver hepatoma), PANC-1 (pancreatic carcinoma) and HCT116 (colon carcinoma).” for “K562 (human chronic myelogenous leukaemia), HL60 (human promyelocytic leukaemia), CEM (human lymphoblastoid leukaemia), THP1 (human monocytic cell line), MV4; 11 (acute myelocytic leukemia).”, “DMEM” for “RPMI”, “4000-10000” for “2000-5000”, “of a” for “of”, “16” for “8”
# [12] = test system: K562 (human chronic myelogenous leukaemia); assay: MTT cytotoxicity assay, leukemic cell line K562; assay type: cell-based; settings: Homo sapiens, K562, 72 h, three days
# Text: as §2, §3
# [13] = test system: caspases 3 and 7 in K562 cells; assay: Caspase-3/7 activity assay in K562 cells; assay type: cell-based, human; settings: 24 hours, FIG. 2
# Procedure: Measurement of proapoptotic properties of new compounds was based on quantification of enzymatic activities of caspases-3/7. Activity of cellular caspase-3/7 was measured according to Carrasco et al., 2003, BioTechniques, 34(5): 1064-67. Briefly, the cells were incubated in a 96-well plate overnight. Next day, the compounds in appropriate concentrations were added and cells were incubated for 24 hours. After incubation, 3× caspase-3/7 assay buffer (150 mM HEPES pH 7.4, 450 mM NaCl, 150 mM KCl, 30 mM MgCl2, 1.2 mM EGTA, 1.5% Nonidet P40, 0.3% CHAPS, 30% sucrose, 30 mM DTT, 3 mM PMSF) with 150 μM Ac-DEVD-AMC as a substrate (Sigma-Aldrich) was added to the wells and plates were incubated at 37° C. […]. The caspase activity was measured using Fluoroskan Ascent microplate reader (Labsystems) at 346 nm/442 nm (excitation/emission).
# CDK5/p35 = molecular target: T2, CDK5/p35 (Homo sapiens, UniProt Q00535); assay: CDK5/p35 kinase inhibition (33P-ATP, histone H1); assay type: biochemical; settings: 0.15 μM ATP
# T2 construct: purchased ProQinase GmbH
# T2 sequence (Q00535 whole entry): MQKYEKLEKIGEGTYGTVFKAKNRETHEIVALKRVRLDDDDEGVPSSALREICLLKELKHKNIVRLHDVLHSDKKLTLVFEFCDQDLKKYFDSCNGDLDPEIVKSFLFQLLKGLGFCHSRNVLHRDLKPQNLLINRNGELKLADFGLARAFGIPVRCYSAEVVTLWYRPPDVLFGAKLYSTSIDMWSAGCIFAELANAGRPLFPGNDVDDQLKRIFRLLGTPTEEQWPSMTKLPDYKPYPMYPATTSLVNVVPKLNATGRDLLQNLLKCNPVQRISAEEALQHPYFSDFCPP
# T2 sequence (Q15078 whole entry partner): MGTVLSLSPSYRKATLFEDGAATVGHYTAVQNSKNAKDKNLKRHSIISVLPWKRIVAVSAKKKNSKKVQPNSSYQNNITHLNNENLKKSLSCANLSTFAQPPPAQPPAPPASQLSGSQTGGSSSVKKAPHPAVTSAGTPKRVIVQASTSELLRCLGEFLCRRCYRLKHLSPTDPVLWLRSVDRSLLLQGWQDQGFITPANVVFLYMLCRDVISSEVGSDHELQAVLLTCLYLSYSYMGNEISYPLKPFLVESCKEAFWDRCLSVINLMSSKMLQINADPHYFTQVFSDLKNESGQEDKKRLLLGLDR
# Procedure: CDK2/Cyclin E kinase was produced in Sf9 insect cells via baculoviral infection and purified on a NiNTA column (Qiagen). […] CDK5/p35 was purchased from ProQinase GmbH.
# as §1
IC50 (CDK2/Cyclin E) [µM],IC50 (CDK5/p35) [µM],SMILES,effect on the cell cycle of MCF7 [1],IC50 [2] [µM],IC50 [3] [µM],IC50 [4] [µM],IC50 [5] [µM],IC50 [6] [µM],IC50 [7] [µM],IC50 [8] [µM],IC50 [9] [µM],EC50 [10] [nM],EC50 [11] [nM],IC50 (HCT116 (colon carcinoma)) [µM],IC50 [12] [µM],caspase-3/7 activity in K562 cells [13]
0.098,,CC[C@@H](CO)Nc1nc(NCc2ccc(-c3ccccn3)cc2)c2n[nH]c(C(C)C)c2n1 [Compound 84],"potently arrested cells in S, G2 and M phases",,,,,,,,,,,,,
0.054,,CC[C@H](CO)Nc1nc(NCc2ccc(-c3ccccn3)cc2)c2n[nH]c(C(C)C)c2n1 [Compound 83],,0.02,0.07,0.01,0.04,0.02,0.02,0.06,0.05,34,39,0.03,,
0.021,,CC(C)c1[nH]nc2c(NCc3ccc(-c4ccccn4)cc3)nc(NC[C@@H](C)O)nc12 [Compound 27],,0.02,0.06,0.03,0.08,0.07,0.04,0.01,0.03,33,35,0.1,0.06,
,0.001,CC(C)c1[nH]nc2c(NCc3ccc(-c4ccccn4)cc3)nc(NCC(C)(C)O)nc12 [Compound 33],,0.02,0.07,0.01,0.03,0.01,0.05,0.01,0.02,14,22,0.04,0.03,potent dose-dependent activation of the caspases in nanomolar concentrations

# Source: US9957273B2, “5-substituted 7- [4-(2-pyridyl)phenylmethylamino] -3-isopropylpyrazolo4,3-D]pyrimidine derivatives, use thereof as medicaments, and pharmaceutical compositions” (USTAV EXPERIMENTALNI BOTANIKY AV CR, V.V.I., priority 2015, dated 2018)
